Here are results for four substances from paper PMC4464269, “Potential of acylated peptides to target the influenza A virus” (Beilstein Journal of Organic Chemistry, 2015).

“And” between values parts separate entries of the source, which are not always exact repeats. Identical values can stand only once. Ends that are not written are not given here. A value given as a limit tells only on which side of the number the result lay.

As a reminder, the IC50 is the concentration at which inhibition is half-maximal.

The format of data set [1] is physicochemical. As to conditions: for hydrodynamic diameter (DLS): Zetasizer Nano ZS, back scattering 173°.
The subject of data set [2] is Aichi H3N2 virus (X31) mediated hemagglutination of human erythrocytes. Type of data set: cell-based, influenza A virus A/Aichi/2/1968 H3N2 (X31).
Data set [3] has as its system human erythrocytes. Type of data set: cell-based.
In data set [4] the test system is human erythrocytes. As to the kind of experiment: Hemolysis assay. Type of data set: cell-based. The following applies: 2% human erythrocytes, 1 h at 37 °C, absorption of the supernatant at 540 nm; titration, three experiments; for C18-s2s above concentrations of 20 µM. The method, then:
To assess how strong membrane incorporation of these peptides can perturb membranes we measured their cell lytic activity in a titration experiment with human erythrocytes. […] For EB the same has been reported by Jones et al..
Figure 7 Hemolytic activity of stearylated peptides and EB. 2% human erythrocytes were incubated for one hour with peptides at 37 °C. After centrifugation, the hemolytic activity was assessed by absorption measurement of the supernatant at 540 nm. Error bars indicate the SEM of three titration experiments.
Peptide inhibitors were serially diluted in PBS, mixed with a 2% human erythrocyte solution, and incubated for 1 h at 37 °C. Afterwards, the mix was centrifuged for 10 min at 1500 x g.
Supernatants were measured for absorption at 540 nm representative for hemoglobin release. Buffer absorbance was subtracted from all data points.
Protection from infection assay
Viral infection inhibition assays were performed using an MTS reagent (Promega). 15,000 MDCK II cells were seeded the day before infection. […] Two hours before the readout, 20 µL MTS solution (Promega) was added to each well and put back to 37 °C for the remaining time. Finally, absorbance at 490 nm was measured by a plate reader (Fluostar optima, BMG) and data were normalized to maximum viral cytotoxicity. […]

Data set [5] deals with Rostock H7N1 virus mediated hemagglutination of turkey erythrocytes. In kind it is cell-based, influenza A virus A/FPV/Rostock/34 H7N1.
The test system of data set [6] is infection of MDCK II cells by Aichi H3N2. In kind it is cell-based, influenza A virus A/Aichi/2/1968 H3N2 (X31).
Data set [7] has as its system infection of MDCK II cells by Rostock H7N1. In kind it is cell-based, influenza A virus A/FPV/Rostock/34 H7N1.
Data set [8] is classed as physicochemical. The following applies: 2 mM in PBS, negative staining with 1% phosphotungstic acid pH 7.4; cryo-TEM gave the same results.
For another data set, the system named is Aichi H3N2. The following applies: at higher viral titer than used in this paper; ref [14]; read-out: IC50 against Aichi H3N2 in the HAI; cited from earlier work. The method, then: The potential to inhibit binding of influenza viruses to cells can be investigated by the well-established hemagglutination inhibition assay (HAI). All peptides, but the control peptide C18-rs2s were able to inhibit Aichi H3N2 virus mediated hemagglutination already at low micromolar concentrations (Table 2). For EB an IC50 of 20 µM against Aichi H3N2 in the HAI has been determined, however at higher viral titer than we used.

For the next data set, the system named is Hongkong H5N1. As to conditions: read-out: IC50 against Hongkong H5N1; cited from earlier work.
The mark [9] stands for this setting: 20 µM in PBS (10 mM, pH 7.4), volume distribution profile.

As for “C17H35CO-ARLPRTMV-CONH2 [C18-s2s, stearylated sialic acid mimetic peptide (Matsubara et al. 2010)]”, in data set [1] (20 µM in PBS (10 mM, pH 7.4)), the “volume size distribution (DLS), in words” value is “multimodal”. Moreover, in data set [2], the “KiHAI (Aichi H3N2)” value worked out at 0.8 ± 0.5 µM. This substance also had a KiA in the data set with human erythrocytes [3] of 7.0 ± 0.8 µM. Further, the hemolytic activity result with human erythrocytes [4] is recorded as “extremely hemolytic”.

For “C17H35CO-VMTRPLRA-CONH2 [C18-rs2s, reference compound]”, the “PDI (DLS)” value in [1] (20 µM in PBS (10 mM, pH 7.4)) came to 0.328. Further, the “hydrodynamic diameter (DLS)” value in data set [1] (setting [9]) was found to be 818.8 nm. Besides, the “KiHAI (Aichi H3N2)” value in [2] is given as “no effect”. In addition, in the data set with human erythrocytes [3], the KiA stood at 4.1 ± 2.1 µM.

With “C17H35CO-XXXXXXXXXXXXXXX-CONH2 [C18-PeB^GF, stearylated HA antibody derived antiviral peptide]”, the “PDI (DLS)” value in data set [1] (20 µM in PBS (10 mM, pH 7.4)) is 0.454. In data set [1] (setting [9]), the “share of bigger supramolecular structures (DLS)” value is 10–15% and the “hydrodynamic diameter (DLS)” value amounted to 16.7 nm. Moreover, the “size of supramolecular aggregates (DLS)” value in [1] (concentration of 100 µM) is more than 1 µm. For the same substance, in [2], the “KiHAI (Aichi H3N2)” value was found to be 1.2 ± 0.0 µM and the “decrease of the KiHAI value compared with unmodified PeB^GF, Aichi H3N2” value came to 20 fold. Moreover, in data set [5], the “KiHAI (Rostock H7N1)” value is 2.8 µM and 2.8 ± 0.9 µM; the “decrease of the KiHAI value compared with unmodified PeB^GF, H7N1” value came out at 10 fold. In the data set with human erythrocytes [3], this substance gave a KiA of 100.0 ± 0.0 µM. The “enhancement of inhibitory potential in infection inhibition compared with unmodified PeB^GF, Aichi H3N2” value in [6] is “approx. 5 fold”. For the same substance, in data set [6] (read-out: IC50, infection inhibition of MDCK cells by Aichi H3N2), the IC50 turned out to be 5.9 µM. For the same substance, in data set [7], the “enhancement of inhibition in infection inhibition compared with unmodified PeB^GF, Rostock H7N1” value is “did not increase”. For the same substance, the IC50 in [7] (read-out: IC50, infection inhibition of MDCK cells by Rostock H7N1) amounted to 84 µM. Also, the “morphology of assemblies (TEM)” value in data set [8] is listed as “fibrillar supramolecular arrangement being up to several hundred nanometers long”.

As for RRKKAAVALLPAVLLALLAP-NH2 [EB], the “KiHAI (Aichi H3N2)” value in [2] was 1.6 ± 0.3 µM. Further, the KiA in the data set with human erythrocytes [3] was 8.6 ± 7.0 µM. Also, the IC50 was 20 µM with Aichi H3N2 and 4.5 µM in the data set on Hongkong H5N1.
